Patent US8372847B2, “Pyrazinone modulator of corticotropin-releasing factor receptor activity” (Bristol-Myers Squibb Company, priority 2008, dated 2013)

What was measured:
CRF1 receptor = molecular target: T1, CRF1 receptor (Rattus norvegicus, UniProt P35353); assay: CRF1 binding assay, 125I-o-CRF competition, rat frontal cortex membrane; conditions: n=10; for Hill Slope: 125I-o-CRF binding, rat frontal cortex membrane; for IC50: 5 point and 10 point competition assays, read-out: IC50, inhibition of 125I-o-CRF binding to rat frontal cortex membrane
T1 construct: rat frontal cortex membrane as the receptor source; from tissue; host or cells: rat frontal cortex
T1 sequence (P35353 24-415): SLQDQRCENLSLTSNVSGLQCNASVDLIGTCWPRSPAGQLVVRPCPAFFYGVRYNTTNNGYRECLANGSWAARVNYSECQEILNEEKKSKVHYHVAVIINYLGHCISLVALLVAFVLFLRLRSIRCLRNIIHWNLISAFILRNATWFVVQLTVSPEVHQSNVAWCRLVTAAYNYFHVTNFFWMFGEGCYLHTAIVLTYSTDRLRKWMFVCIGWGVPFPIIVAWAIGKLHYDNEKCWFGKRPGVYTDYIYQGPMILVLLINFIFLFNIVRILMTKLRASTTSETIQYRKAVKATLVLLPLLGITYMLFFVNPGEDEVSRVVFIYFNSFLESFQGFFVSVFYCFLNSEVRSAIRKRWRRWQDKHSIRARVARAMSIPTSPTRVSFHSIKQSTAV
Description: CRF1 Binding Assay. Frozen rat frontal cortex was thawed rapidly in assay buffer containing 50 mM Hepes (pH 7.0 at 23° C.), 10 mM MgCl2, 2 mM EGTA, 1 μg/ml aprotinin, 1 μg/ml leupeptin, 1 μg/ml pepstatin A, 0.005% Triton X-100, 10 U/ml bacitracin and 0.1% ovalbumin and homogenized. The suspension was centrifuged at 32000×g for 30 minutes. The resulting supernatant was discarded and the pellet resuspended by homogenization in assay buffer and centrifuged again. The supernatant was discarded and the pellet resuspended by homogenization in assay buffer and frozen at −70° C. On the day of the experiment aliquots of the homogenate were thawed quickly and 25 μg/well added to 150 pM ^125I-ovine-CRF (^125I-o-CRF) and drugs in a total volume of 100 μl assay buffer. The assay mixture was incubated for 2 hr at 21° C. Bound and free radioligand were then separated by rapid filtration using glass fiber filters (Whatman GF/B, pretreated with 0.3% PEI (polyethylenimine)) on a Brandel Cell Harvester. Filters were then washed multiple times with ice cold wash buffer (PBS w/o Ca^2+ and Mg^2+, 0.01% Triton X-100; pH 7.0 at 23° C.). Non-specific binding was defined using 1 μM DMP696, a CRF1 selective antagonist [Li, Y-W. et al., CNS Drug Reviews 11: 21-52, (2005)]. Filters were then counted in a Wallac Wizard gamma counter. IC50 values were determined in a five point (five drug concentrations) or ten point (ten drug concentrations) competition assay using non-linear regression by Microsoft Excel-fit.
Binding Results. The primary screen to determine binding potency (IC50 value) of (S)-4-(1-cyclopropyl-2-methoxyethyl)-6-(6-(difluoromethoxy)-2,5-dimethylpyridin-3-ylamino)-5-oxo-4,5-dihydropyrazine-2-carbonitrile at the CRF1 receptor was a competition binding experiment utilizing ^125I-o-CRF as the labeled peptide ligand and rat frontal cortex membrane as the receptor source. […] (S)-4-(1-Cyclopropyl-2-methoxyethyl)-6-(6-(difluoromethoxy)-2,5-dimethylpyridin-3-ylamino)-5-oxo-4,5-dihydropyrazine-2-carbonitrile also bound with high affinity to the native CRF1 receptors present on the human retinoblastoma cell line Y79.

Male Sprague-Dawley rats = conditions: previous CRF1 antagonists, literature (McElroy 2002; Lelas 2004); cited from earlier work
CRF2 receptor = molecular target: T2, CRF2 receptor (Sus scrofa, UniProt B8Q4Z9); assay: CRF2 binding assay, 125I-sauvagine competition, porcine choroid plexus membrane; conditions: n=3; read-out: IC50 at CRF2 receptors of porcine choroid plexus membrane
T2 construct: the CRF2 receptors endogenously expressed on the porcine choroid plexus membrane; from tissue; host or cells: porcine choroid plexus
Description: CRF2 Binding Assay. Frozen porcine choroid plexus was thawed rapidly in assay buffer containing 50 mM Hopes (pH 7.0 at 23° C.), 10 mM MgCl2, 2 mM EGTA, 1 μg/ml aprotinin, 1 μg/ml leupeptin, 1 μg/ml pepstatin A, 0.005% Triton X-100, 10 U/ml bacitracin and 0.1% ovalbumin and homogenized. The suspension was centrifuged at 32000×g for 30 minutes. The resulting supernatant was discarded and the pellet resuspended by homogenization in assay buffer and centrifuged again. The supernatant was discarded and the pellet resuspended by homogenization in assay buffer and frozen at −70° C. On the day of the experiment aliquots of the homogenate were thawed quickly and 10 μg/well added to 100 pM ^125I-sauvagine and drugs in a total volume of 100 μl assay buffer. The assay mixture was incubated for 2 hr at 21° C. Bound and free radioligand were then separated by rapid filtration using glass fiber filters (Whatman GF/B, pretreated with 0.3% PEI) on a Brandel Cell Harvester. Filters were then washed multiple times with ice cold wash buffer (PBS w/o Ca^2+ and Mg^2+, 0.01% Triton X-100 (pH 7.0 at 23° C.)). Non-specific binding was defined using 1 μM α-helical CRF (9-41). Filters were then counted in a Wallac Wizard gamma counter. IC50 values were determined in a five point (five drug concentrations) competition assay using non-linear regression by Microsoft Excel-fit.
Binding Results. […]

T2 sequence (B8Q4Z9 1-411): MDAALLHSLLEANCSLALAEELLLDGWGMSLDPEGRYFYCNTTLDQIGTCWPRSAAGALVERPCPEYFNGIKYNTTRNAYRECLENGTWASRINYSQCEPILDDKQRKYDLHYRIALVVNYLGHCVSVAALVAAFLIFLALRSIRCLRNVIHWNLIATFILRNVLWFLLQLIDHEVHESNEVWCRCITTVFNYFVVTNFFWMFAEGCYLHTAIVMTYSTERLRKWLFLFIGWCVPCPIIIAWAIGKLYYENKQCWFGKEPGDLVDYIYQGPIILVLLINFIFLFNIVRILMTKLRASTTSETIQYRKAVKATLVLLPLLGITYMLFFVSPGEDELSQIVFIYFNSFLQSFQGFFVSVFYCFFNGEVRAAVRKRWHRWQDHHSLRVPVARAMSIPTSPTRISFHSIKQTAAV

Structure (SMILES)	Hill Slope (CRF1 receptor)	IC50 (CRF1 receptor) [nM]	effectiveness in the situational anxiety model (Male Sprague-Dawley rats)	IC50 (CRF2 receptor) [nM]
COCC(COC)Nc1nc(C)nc2c(-c3ccc(Cl)cc3Cl)c(C)nn12 [DMP696]	1.00±0.02	1.39 ± 0.09	effective	–
COC[C@H](C1CC1)n1cc(C#N)nc(Nc2cc(C)c(OC(F)F)nc2C)c1=O [(S)-4-(1-cyclopropyl-2-methoxyethyl)-6-(6-(difluoromethoxy)-2,5-dimethylpyridin-3-ylamino)-5-oxo-4,5-dihydropyrazine-2-carbonitrile]	0.94±0.03	0.86 ± 0.04	–	> 10000
